Assay results published in patent US20090069300A1, “ISOQUINOLINYL AND ISOINDOLINYL DERIVATIVES AS HISTAMINE-3 ANTAGONISTS” (Wyeth, priority 2007, published 2009).
Counter-ions that a name gives are not always drawn.

Legend:
[1] = target: T1, Human Histamine H3 Receptor (Homo sapiens, UniProt Q9Y5N1); experiment: Methyl histamine binding in human histamine H3 receptor cell line; conditions: read-out: H3 Binding Ki
T1 construct: expressed in transfected cells; host or cells: HEK293T (stably transfected; membranes prepared from the cells)
T1 sequence (Q9Y5N1 whole entry): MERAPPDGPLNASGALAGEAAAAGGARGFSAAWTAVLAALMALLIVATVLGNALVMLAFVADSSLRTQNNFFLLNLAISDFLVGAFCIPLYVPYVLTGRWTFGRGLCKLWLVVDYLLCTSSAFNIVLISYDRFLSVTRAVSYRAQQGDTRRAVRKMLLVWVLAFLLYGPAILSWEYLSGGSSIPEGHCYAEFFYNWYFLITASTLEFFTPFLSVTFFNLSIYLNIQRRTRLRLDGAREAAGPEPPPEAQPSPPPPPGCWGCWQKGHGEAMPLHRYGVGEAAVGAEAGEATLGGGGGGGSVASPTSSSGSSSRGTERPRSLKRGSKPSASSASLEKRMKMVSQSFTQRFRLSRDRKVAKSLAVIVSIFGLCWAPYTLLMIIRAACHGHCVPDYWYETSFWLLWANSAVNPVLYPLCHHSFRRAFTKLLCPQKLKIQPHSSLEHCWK
In short: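 Radioligand binding on membranes (10 μg/well) from a human H3 receptor cell line, 1 nM radioligand, 1 h at 30° C. in 50 mM Tris pH 7.5. Nonspecific binding defined with 10 uM clobenpropit, followed by filtration and scintillation counting. IC50 from four-parameter fit, converted to Ki by Cheng-Prusoff.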

Compound | melting point | Ki [1]
O=C(c1ccc2c(c1)CCN(CCN1CCCC1)C2=O)N1CCCC1 (as salt: hydrochloride) [Example 38, 6-(pyrrolidin-1-ylcarbonyl)-2-(2-pyrrolidin-1-ylethyl)-3,4-dihydroisoquinolin-1(2H)-one hydrochloride] | 194 to 196 °C | –
CON(C)C(=O)c1ccc(-c2ccc3c(c2)CCN(CCN2CCCC2)C3=O)cc1 (as salt: hydrochloride) [Example 102, N-methoxy-N-methyl-4-(1-oxo-2-(2-(pyrrolidin-1-yl)ethyl)-1,2,3,4-tetrahydroisoqui-nolin-6-yl)benzamide] | 190 to 191 °C | –
CC(C)NC(=O)c1ccc(-c2ccc3c(c2)CCN(CCN2CCC[C@H]2C)C3=O)cc1 (as salt: hydrochloride) [Example 77, N-isopropyl-4-(2-{2-[(2R)-2-methylpyrrolidin-1-yl]ethyl}-1-oxo-1,2,3,4-tetrahydroisoquinolin-6-yl)benzamide] | 188 to 189 °C | –
O=C1c2ccc(N3CCCCC3)cc2CCN1CCN1CCCCCC1 (as salt: hydrochloride) [Example 164, 2-(2-(azepan-1-yl)ethyl)-6-(piperidin-1-yl)-3,4-dihydroisoquinolin-1(2H)-one] | 229 to 231 °C | –
CNC(=O)c1ccc(-c2ccc3c(c2)C(=O)N(CCN2CCC[C@H]2C)CC3)cc1 (as salt: hydrochloride) [Example 83, N-methyl-4-(2-{2-[(2R)-2-methylpyrrolidin-1-yl]ethyl}-1-oxo-1,2,3,4-tetrahydroiso-quinolin-7-yl)benzamide] | 262 to 263 °C | –
C[C@@H]1CCCN1CCN1CCc2cc(C(=O)NC3CCCC3)ccc2C1=O (as salt: hydrochloride) [Example 149, N-cyclopentyl-2-{2-[(2R)-2-methylpyrrolidin-1-yl]ethyl}-1-oxo-1,2,3,4-tetrahydroisoquinoline-6-carboxamide] | 219 to 220 °C | –
NC(=O)c1ccc(-c2ccc3c(c2)CCN(CCN2CCCC2)C3)cc1 (as salt: hydrochloride) [Example 180, 4-[2-(2-pyrrolidin-1-ylethyl)-1,2,3,4-tetrahydroisoquinolin-6-yl]benzamide] | 262 to 264 °C | –
O=C(Nc1nccs1)c1ccc(-c2ccc3c(c2)CCN(CCN2CCCC2)C3=O)cc1 (as salt: hydrochloride) [Example 130, 4-[1-oxo-2-(2-pyrrolidin-1-ylethyl)-1,2,3,4-tetrahydroisoquinolin-6-yl]-N-1,3-thiazol-2-ylbenzamide] | 284 to 285 °C | –
CNC(=O)c1ccc(-c2ccc3c(c2)CCN(CCN2CCCC2)C3=O)cc1 (as salt: hydrochloride) [Example 59, N-methyl-4-[1-oxo-2-(2-pyrrolidin-1-ylethyl)-1,2,3,4-tetrahydroisoquinolin-6-yl]benzamide] | 235 to 236 °C | –
CCNC(=O)c1ccc(-c2ccc3c(c2)CCN(CCN2CCC[C@H]2C)C3=O)cc1 (as salt: hydrochloride) [Example 75, N-ethyl-4-(2-{2-[(2R)-2-methylpyrrolidin-1-yl]ethyl}-1-oxo-1,2,3,4-tetrahydroisoquinolin-6-yl)benzamide] | 228 to 230 °C | –
O=C(O)c1ccc(Oc2ccc3c(c2)CCN(CCN2CCCC2)C3=O)cc1 | 99 to 100 °C | –
C[C@@H]1CCCN1CCN1CCc2cc(Oc3ccc(C#N)cn3)ccc2C1=O (as salt: hydrochloride) [Example 48, 6-[(2-{2-[(2R)-2-methylpyrrolidin-1-yl]ethyl}-1-oxo-1,2,3,4-tetrahydroisoquinolin-6-yl)oxy]nicotinonitrile] | 184 to 185 °C | –
O=C1c2ccc(-c3ccc(F)cc3)cc2CCN1CCN1CCCCC1 (as salt: hydrochloride) [Example 43, 6-(4-fluorophenyl)-2-(2-piperidin-1-ylethyl)-3,4-dihydroiso-quinolin-1(2H)-one hydrochloride] | 241 to 243 °C | –
CN(C)C(=O)c1cc(-c2ccc3c(c2)CCN(CCN2CCCC2)C3=O)ccc1F [Example 132, 2-fluoro-N,N-dimethyl-5-[1-oxo-2-(2-pyrrolidin-1-ylethyl)-1,2,3,4-tetrahydroisoquinolin-6-yl]benzamide] | – | < 10 nM
O=C1c2ccc(-c3cccc(C(F)(F)F)c3)cc2CCN1CCN1CCCC1 [Example 20, 2-(2-pyrrolidin-1-ylethyl)-6-[3-(trifluoromethyl)phenyl]-3,4-dihydroisoquinolin-1(2H)-one] | – | < 10 nM
O=C(c1cc(-c2ccc3c(c2)CCN(CCN2CCCC2)C3=O)ccc1F)N1CCCC1 [Example 131, 6-[4-fluoro-3-(pyrrolidin-1-ylcarbonyl)phenyl]-2-(2-pyrrolidin-1-ylethyl)-3,4-dihydroisoquinolin-1-(2H)-one] | – | < 10 nM
C[C@@H]1CCCN1CCN1CCc2cc(-c3ccc(C(=O)NCC4CC4)cc3)ccc2C1=O [Example 73, N-(cyclopropylmethyl)-4-(2-{2-[(2R)-2-methylpyrrolidin-1-yl]ethyl}-1-oxo-1,2,3,4-tetrahydroisoquinolin-6-yl)benzamide] | – | < 10 nM
CNC(=O)c1ccc(-c2ccc3c(c2)CCN(CCN2CCCC2)C3=O)cc1 [Example 59, N-methyl-4-[1-oxo-2-(2-pyrrolidin-1-ylethyl)-1,2,3,4-tetrahydroisoquinolin-6-yl]benzamide] | – | < 10 nM

Compound | melting point | Ki [1]
O=C1c2ccc(-n3cccn3)cc2CCN1CCN1CCCC1 [Example 37, 6-(1H-pyrazol-1-yl)-2-(2-(pyrrolidin-1-yl)ethyl)-3,4-dihydroisoquinolin-1(2H)-one hydrochloride] | – | 10.1 to 25 nM
CN(C)C(=O)c1ccc(-c2ccc3c(c2)CCN(CCN2CCCC2)C3)cc1 [Example 183, N,N-dimethyl-4-[2-(2-pyrrolidin-1-ylethyl)-1,2,3,4-tetrahydroisoquinolin-6-yl]benzamide] | – | < 10 nM
O=C(NC1CC1)c1ccc(-c2ccc3c(c2)CCN(CCN2CCCC2)C3=O)cc1 [Example 57, N-cyclopropyl-4-[1-oxo-2-(2-pyrrolidin-1-ylethyl)-1,2,3,4-tetrahydroisoquinolin-6-yl]benzamide] | – | < 10 nM
C[C@@H]1CCCN1CCN1CCc2cc(C(=O)Nc3ccncc3)ccc2C1=O [Example 153, 2-{2-[(2R)-2-methylpyrrolidin-1-yl]ethyl}-1-oxo-N-pyridin-4-yl-1,2,3,4-tetrahydroisoquinoline-6-carboxamide] | – | < 10 nM
CN(C)C(=O)c1ccc(-c2ccc3c(c2)CCN(CCN2CCCC2)C3=O)cc1 [Example 56, N,N-dimethyl-4-[1-oxo-2-(2-pyrrolidin-1-ylethyl)-1,2,3,4-tetrahydroisoquinolin-6-yl]benzamide] | – | < 10 nM
CNC(=O)c1ccc(-c2ccc3c(c2)CN(CCN2CCC[C@H]2C)C3=O)cc1 [Example 118, N-methyl-4-(2-{2-[(2R)-2-methylpyrrolidin-1-yl]ethyl}-1-oxo-2,3-dihydro-1H-isoindol-5-yl)benzamide] | – | 50.1 to 100 nM
N#Cc1ccc(-c2ccc3c(c2)CCN(CCN2CCCC2)C3=O)cc1 [Example 19, 4-[1-oxo-2-(2-pyrrolidin-1-ylethyl)-1,2,3,4-tetrahydroisoquinolin-6-yl]benzonitrile] | – | < 10 nM
C[C@@H]1CCCN1CCN1CCc2cc(-c3ccc(C(=O)N4CCCC4)cc3)ccc2C1=O [Example 66, 2-{2-[(2R)-2-methylpyrrolidin-1-yl]ethyl}-6-[4-(pyrrolidin-1-ylcarbonyl)phenyl]-3,4-dihydroisoquinolin-1(2H)-one] | – | < 10 nM
C[C@@H]1CCCN1CCN1CCc2ccc(-c3ccc(C(=O)N4CCCC4)cc3)cc2C1=O [Example 86, 2-{2-[(2R)-2-methylpyrrolidin-1-yl]ethyl}-7-[4-(pyrrolidin-1-ylcarbonyl)phenyl]-3,4-dihydroisoquinolin-1(2H)-one] | – | < 10 nM
C[C@@H]1CCCN1CCN1CCc2cc(Oc3ccc(C(=O)N4CCCC4)cc3)ccc2C1=O [Example 160, 2-{2-[(2R)-2-methylpyrrolidin-1-yl]ethyl}-6-[4-(pyrrolidin-1-ylcarbonyl)phenoxy]-3,4-dihydroisoquinolin-1(2H)-one hydrochloride] | – | < 10 nM
C[C@@H]1CCCN1CCN1CCc2cc(C(=O)NC3Cc4ccccc4C3)ccc2C1=O [Example 148, N-(2,3-dihydro-1H-inden-2-yl)-2-{2-[(2R)-2-methylpyrrolidin-1-yl]ethyl}-1-oxo-1,2,3,4-tetrahydroisoquinoline-6-carboxamide] | – | < 10 nM
O=C1c2ccc(-n3cnc4ccccc43)cc2CCN1CCN1CCCC1 [Example 108, 6-(1H-benzimidazol-1-yl)-2-(2-pyrrolidin-1-ylethyl)-3,4-dihydroisoquinolin-1(2H)-one Fumarate Salt] | – | < 10 nM
CNC(=O)c1ccc(Oc2ccc3c(c2)CCN(CCN2CCCC2)C3=O)nc1 [Example 101, N-Methyl-6-(1-oxo-2-(2-(pyrrolidin-1-yl)ethyl)-1,2,3,4-tetrahydro-isoquinolin-6-yloxy)nicotinamide hydrochloride] | – | 25.1 to 50 nM
NC(=O)c1ccc(Oc2ccc3c(c2)CCN(CCN2CCCC2)C3=O)cc1 [Example 91, 4-{[1-oxo-2-(2-pyrrolidin-1-ylethyl)-1,2,3,4-tetrahydroisoquinolin-6-yl]oxy}benzamide] | – | 10.1 to 25 nM
CCN(CC)C(=O)c1ccc(Oc2ccc3c(c2)CCN(CCN2CCCC2)C3=O)cc1 [Example 96, N,N-diethyl-4-{[1-oxo-2-(2-pyrrolidin-1-ylethyl)-1,2,3,4-tetrahydroisoquinolin-6-yl]oxy}benzamide] | – | 25.1 to 50 nM
O=C1c2ccc(-c3ccccc3)cc2CCN1CCN1CCCC1 [Example 16, 6-phenyl-2-(2-pyrrolidin-1-ylethyl)-3,4-dihydroisoquinolin-1(2H)-one] | – | 10.1 to 25 nM
O=C(c1ccc(-c2ccc3c(c2)CCN(CCN2CCCC2)C3)cc1)N1CCOCC1 [Example 186, 6-[4-(morpholin-4-ylcarbonyl)phenyl]-2-(2-pyrrolidin-1-ylethyl)-1,2,3,4-tetrahydroisoquinoline] | – | < 10 nM
